# Source: PubChem BioAssay (NCI)
#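 Following 48 hours of exposure in 96-well plates, responses at five concentrations were used to interpolate endpoints linearly. GI50 = concentration required for 50% inhibition of growth. The concentration for full growth arrest is given as TGI.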
# Legend:
# Assay in all cases: inhibition of tumour cell growth, NCI panel, 48 h
# HCT-116 colon = tested on: HCT-116 colon
# HOP-92 NSCLC = tested on: HOP-92 NSCLC
# SF-268 CNS = tested on: SF-268 CNS
# NCI-H460 lung = tested on: NCI-H460 lung
# NCI-H23 lung = tested on: NCI-H23 lung
# BT-549 breast = tested on: BT-549 breast
# MOLT-4 leukemia = tested on: MOLT-4 leukemia
# RXF 393 renal = tested on: RXF 393 renal
# SN12C renal = tested on: SN12C renal
# NCI-H522 lung = tested on: NCI-H522 lung
# SR leukemia = tested on: SR leukemia
# KM12 colon = tested on: KM12 colon
# PC-3 prostate = tested on: PC-3 prostate
# MCF7 breast = tested on: MCF7 breast
# COLO 205 colon = tested on: COLO 205 colon
# HS 578T breast = tested on: HS 578T breast
# SW-620 colon = tested on: SW-620 colon
# U251 CNS = tested on: U251 CNS
# MDA-MB-435 = tested on: MDA-MB-435
# LOX IMVI melanoma = tested on: LOX IMVI melanoma
# DU-145 prostate = tested on: DU-145 prostate
# UACC-62 melanoma = tested on: UACC-62 melanoma
# TK-10 renal = tested on: TK-10 renal
# RPMI-8226 leukemia = tested on: RPMI-8226 leukemia
# SK-MEL-28 melanoma = tested on: SK-MEL-28 melanoma
# 786-0 renal = tested on: 786-0 renal
# SK-OV-3 ovarian = tested on: SK-OV-3 ovarian
# HCT-15 colon = tested on: HCT-15 colon
# SF-539 CNS = tested on: SF-539 CNS
# UACC-257 melanoma = tested on: UACC-257 melanoma
# SNB-19 CNS = tested on: SNB-19 CNS
# EKVX NSCLC = tested on: EKVX NSCLC
# M14 melanoma = tested on: M14 melanoma
# SK-MEL-2 melanoma = tested on: SK-MEL-2 melanoma
# NCI/ADR-RES ovarian = tested on: NCI/ADR-RES ovarian
# K-562 leukemia = tested on: K-562 leukemia
# HL-60(TB) leukemia = tested on: HL-60(TB) leukemia
# HOP-62 NSCLC = tested on: HOP-62 NSCLC
# CCRF-CEM leukemia = tested on: CCRF-CEM leukemia
# A549 NSCLC = tested on: A549 NSCLC
# T-47D breast = tested on: T-47D breast
# UO-31 renal = tested on: UO-31 renal
# SF-295 CNS = tested on: SF-295 CNS
# MDA-MB-231 breast = tested on: MDA-MB-231 breast
# OVCAR-5 ovarian = tested on: OVCAR-5 ovarian
# CAKI-1 renal = tested on: CAKI-1 renal
# HCC-2998 colon = tested on: HCC-2998 colon
# OVCAR-8 ovarian = tested on: OVCAR-8 ovarian
# SK-MEL-5 melanoma = tested on: SK-MEL-5 melanoma
# ACHN renal = tested on: ACHN renal
# IGROV1 ovarian = tested on: IGROV1 ovarian
# OVCAR-3 ovarian = tested on: OVCAR-3 ovarian
# OVCAR-4 ovarian = tested on: OVCAR-4 ovarian
# A498 renal = tested on: A498 renal
# MALME-3M melanoma = tested on: MALME-3M melanoma
# SNB-75 CNS = tested on: SNB-75 CNS
# NCI-H226 lung = tested on: NCI-H226 lung
# HT29 colon = tested on: HT29 colon
structure (smiles),measurement,setting,value
CC1=C(C(=O)Nc2ccc(F)c(Cl)c2)C(c2cccc(Oc3ccccc3)c2)NC(=S)N1 (centres undefined),GI50,HCT-116 colon,14.6 µM
same,TGI,HCT-116 colon,46.8 µM
same,GI50,HOP-92 NSCLC,21 µM
same,TGI,HOP-92 NSCLC,> 50 µM
same,GI50,SF-268 CNS,10.5 µM
same,TGI,SF-268 CNS,24.2 µM
same,GI50,NCI-H460 lung,13.5 µM
same,TGI,NCI-H460 lung,33.6 µM
same,GI50,NCI-H23 lung,19.3 µM
same,TGI,NCI-H23 lung,39.4 µM
same,GI50,BT-549 breast,14.1 µM
same,TGI,BT-549 breast,32.4 µM
same,GI50,MOLT-4 leukemia,> 50 µM
same,TGI,MOLT-4 leukemia,> 50 µM
same,GI50,RXF 393 renal,6.79 µM
same,TGI,RXF 393 renal,15.6 µM
same,GI50,SN12C renal,9.27 µM
same,TGI,SN12C renal,17.6 µM
same,GI50,NCI-H522 lung,8.57 µM
same,TGI,NCI-H522 lung,24.3 µM
same,GI50,SR leukemia,14.3 µM
same,TGI,SR leukemia,> 50 µM
same,GI50,KM12 colon,18.8 µM
same,TGI,KM12 colon,> 50 µM
same,GI50,PC-3 prostate,11.9 µM
same,TGI,PC-3 prostate,48.2 µM
same,GI50,MCF7 breast,12.8 µM
same,TGI,MCF7 breast,> 50 µM
same,GI50,COLO 205 colon,17.9 µM
same,TGI,COLO 205 colon,> 50 µM
same,GI50,HS 578T breast,13.3 µM
same,TGI,HS 578T breast,29.2 µM
same,GI50,SW-620 colon,16.2 µM
same,TGI,SW-620 colon,44.2 µM
same,GI50,U251 CNS,9.64 µM
same,TGI,U251 CNS,20.2 µM
same,GI50,MDA-MB-435,11.9 µM
same,TGI,MDA-MB-435,33.8 µM
same,GI50,LOX IMVI melanoma,8.77 µM
same,TGI,LOX IMVI melanoma,20.2 µM
same,GI50,DU-145 prostate,21.2 µM
same,TGI,DU-145 prostate,> 50 µM
same,GI50,UACC-62 melanoma,10 µM
same,TGI,UACC-62 melanoma,20.2 µM
same,GI50,TK-10 renal,16.3 µM
same,TGI,TK-10 renal,> 50 µM
same,GI50,RPMI-8226 leukemia,16.8 µM
same,TGI,RPMI-8226 leukemia,> 50 µM
same,GI50,SK-MEL-28 melanoma,8.89 µM
same,TGI,SK-MEL-28 melanoma,25.9 µM
same,GI50,786-0 renal,10.8 µM
same,TGI,786-0 renal,21.5 µM
same,GI50,SK-OV-3 ovarian,15.9 µM
same,TGI,SK-OV-3 ovarian,43.3 µM
same,GI50,HCT-15 colon,11.5 µM
same,TGI,HCT-15 colon,33.2 µM
same,GI50,SF-539 CNS,18.7 µM
same,TGI,SF-539 CNS,44 µM
same,GI50,UACC-257 melanoma,13.5 µM
same,TGI,UACC-257 melanoma,33.5 µM
same,GI50,SNB-19 CNS,32.2 µM
same,TGI,SNB-19 CNS,> 50 µM
same,GI50,EKVX NSCLC,14.8 µM
same,TGI,EKVX NSCLC,41.5 µM
same,GI50,M14 melanoma,12 µM
same,TGI,M14 melanoma,27.3 µM
same,GI50,SK-MEL-2 melanoma,9.72 µM
same,TGI,SK-MEL-2 melanoma,27.2 µM
same,GI50,NCI/ADR-RES ovarian,27.8 µM
same,TGI,NCI/ADR-RES ovarian,> 50 µM
same,GI50,K-562 leukemia,10.7 µM
same,TGI,K-562 leukemia,31.6 µM
same,GI50,HL-60(TB) leukemia,17.4 µM
same,TGI,HL-60(TB) leukemia,> 50 µM
same,GI50,HOP-62 NSCLC,14.7 µM
same,TGI,HOP-62 NSCLC,30.1 µM
same,GI50,CCRF-CEM leukemia,17.7 µM
same,TGI,CCRF-CEM leukemia,47.6 µM
same,GI50,A549 NSCLC,13.7 µM
same,TGI,A549 NSCLC,> 50 µM
same,GI50,T-47D breast,40.4 µM
same,TGI,T-47D breast,> 50 µM
same,GI50,UO-31 renal,13.3 µM
same,TGI,UO-31 renal,44.3 µM
same,GI50,SF-295 CNS,15.6 µM
same,TGI,SF-295 CNS,> 50 µM
same,GI50,MDA-MB-231 breast,10.7 µM
same,TGI,MDA-MB-231 breast,22.9 µM
same,GI50,OVCAR-5 ovarian,19.2 µM
same,TGI,OVCAR-5 ovarian,34.8 µM
same,GI50,CAKI-1 renal,15.9 µM
same,TGI,CAKI-1 renal,> 50 µM
same,GI50,HCC-2998 colon,23.8 µM
same,TGI,HCC-2998 colon,> 50 µM
same,GI50,OVCAR-8 ovarian,11.3 µM
same,TGI,OVCAR-8 ovarian,26.9 µM
same,GI50,SK-MEL-5 melanoma,10.2 µM
same,TGI,SK-MEL-5 melanoma,19.6 µM
same,GI50,ACHN renal,12.3 µM
same,TGI,ACHN renal,36.1 µM
same,GI50,IGROV1 ovarian,10.6 µM
same,TGI,IGROV1 ovarian,37 µM
same,GI50,OVCAR-3 ovarian,11.3 µM
same,TGI,OVCAR-3 ovarian,28.6 µM
O=C1Nc2ccccc2/C1=C\c1nc(-c2ccccc2F)n2ccccc12,GI50,HCT-116 colon,1.97 µM
same,TGI,HCT-116 colon,4.04 µM
same,GI50,SF-268 CNS,4.65 µM
same,TGI,SF-268 CNS,18.7 µM
same,GI50,NCI-H460 lung,2.17 µM
same,TGI,NCI-H460 lung,5.14 µM
same,GI50,NCI-H23 lung,4.55 µM
same,TGI,NCI-H23 lung,17.3 µM
same,GI50,BT-549 breast,3.37 µM
same,TGI,BT-549 breast,12.9 µM
same,GI50,MOLT-4 leukemia,28.2 µM
same,TGI,MOLT-4 leukemia,> 100 µM
same,GI50,RXF 393 renal,3.14 µM
same,TGI,RXF 393 renal,10.7 µM
same,GI50,SN12C renal,4.32 µM
same,TGI,SN12C renal,17 µM
same,GI50,NCI-H522 lung,2.18 µM
same,TGI,NCI-H522 lung,7.37 µM
same,GI50,SR leukemia,11 µM
same,TGI,SR leukemia,29.4 µM
same,GI50,KM12 colon,3.49 µM
same,TGI,KM12 colon,14.4 µM
same,GI50,PC-3 prostate,6.81 µM
same,TGI,PC-3 prostate,26.9 µM
same,GI50,MCF7 breast,2.1 µM
same,TGI,MCF7 breast,12.2 µM
same,GI50,COLO 205 colon,4.08 µM
same,TGI,COLO 205 colon,14.9 µM
same,GI50,SW-620 colon,3.97 µM
same,TGI,SW-620 colon,14.2 µM
same,GI50,U251 CNS,2.57 µM
same,TGI,U251 CNS,6.1 µM
same,GI50,MDA-MB-435,3.95 µM
same,TGI,MDA-MB-435,16.1 µM
same,GI50,LOX IMVI melanoma,4.15 µM
same,TGI,LOX IMVI melanoma,15.6 µM
same,GI50,OVCAR-4 ovarian,1.81 µM
same,TGI,OVCAR-4 ovarian,4.49 µM
same,GI50,DU-145 prostate,3.26 µM
same,TGI,DU-145 prostate,12.9 µM
same,GI50,UACC-62 melanoma,6.32 µM
same,TGI,UACC-62 melanoma,25.2 µM
same,GI50,A498 renal,2.81 µM
same,TGI,A498 renal,11 µM
same,GI50,TK-10 renal,4.05 µM
same,TGI,TK-10 renal,14.2 µM
same,GI50,RPMI-8226 leukemia,51.4 µM
same,TGI,RPMI-8226 leukemia,> 100 µM
same,GI50,MALME-3M melanoma,3.07 µM
same,TGI,MALME-3M melanoma,7.22 µM
same,GI50,SK-MEL-28 melanoma,3.71 µM
same,TGI,SK-MEL-28 melanoma,14.6 µM
same,GI50,786-0 renal,3.44 µM
same,TGI,786-0 renal,10.1 µM
same,GI50,SK-OV-3 ovarian,3.46 µM
same,TGI,SK-OV-3 ovarian,12.4 µM
same,GI50,HCT-15 colon,13 µM
same,TGI,HCT-15 colon,> 100 µM
same,GI50,SF-539 CNS,3.1 µM
same,TGI,SF-539 CNS,11.1 µM
same,GI50,UACC-257 melanoma,5.2 µM
same,TGI,UACC-257 melanoma,18.1 µM
same,GI50,SNB-19 CNS,4.7 µM
same,TGI,SNB-19 CNS,16.7 µM
same,GI50,SNB-75 CNS,1.79 µM
same,TGI,SNB-75 CNS,4.95 µM
same,GI50,EKVX NSCLC,10.6 µM
same,TGI,EKVX NSCLC,28.3 µM
same,GI50,M14 melanoma,5.65 µM
same,TGI,M14 melanoma,17.9 µM
same,GI50,SK-MEL-2 melanoma,6.81 µM
same,TGI,SK-MEL-2 melanoma,19.6 µM
same,GI50,NCI/ADR-RES ovarian,3.36 µM
same,TGI,NCI/ADR-RES ovarian,13.3 µM
same,GI50,K-562 leukemia,6.35 µM
same,TGI,K-562 leukemia,19.7 µM
same,GI50,HL-60(TB) leukemia,24.9 µM
same,TGI,HL-60(TB) leukemia,> 100 µM
same,GI50,HOP-62 NSCLC,2.37 µM
same,TGI,HOP-62 NSCLC,5.93 µM
same,GI50,NCI-H226 lung,4.78 µM
same,TGI,NCI-H226 lung,21.3 µM
same,GI50,CCRF-CEM leukemia,91.1 µM
same,TGI,CCRF-CEM leukemia,> 100 µM
same,GI50,HT29 colon,3.5 µM
same,TGI,HT29 colon,12.1 µM
same,GI50,A549 NSCLC,3.46 µM
same,TGI,A549 NSCLC,10.3 µM
same,GI50,T-47D breast,2.36 µM
same,TGI,T-47D breast,8.11 µM
same,GI50,UO-31 renal,2.12 µM
same,TGI,UO-31 renal,10.8 µM
same,GI50,SF-295 CNS,3.68 µM
same,TGI,SF-295 CNS,13.7 µM
same,GI50,MDA-MB-231 breast,2.27 µM
same,TGI,MDA-MB-231 breast,9.07 µM
same,GI50,OVCAR-5 ovarian,18 µM
same,TGI,OVCAR-5 ovarian,53.5 µM
same,GI50,HCC-2998 colon,55.2 µM
same,TGI,HCC-2998 colon,> 100 µM
same,GI50,OVCAR-8 ovarian,2.49 µM
same,TGI,OVCAR-8 ovarian,8.12 µM
same,GI50,SK-MEL-5 melanoma,2.8 µM
same,TGI,SK-MEL-5 melanoma,11.4 µM
same,GI50,ACHN renal,3.3 µM
same,TGI,ACHN renal,10.9 µM
same,GI50,IGROV1 ovarian,2.04 µM
same,TGI,IGROV1 ovarian,12.5 µM
same,GI50,OVCAR-3 ovarian,1.9 µM
same,TGI,OVCAR-3 ovarian,4.38 µM
